From PubChem BioAssay (NCI)
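Here, GI50 denotes the concentration required for 50% inhibition of growth. TGI denotes the concentration required for complete inhibition of growth.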

Experiments:
Test in all cases: DTP human tumour cell line panel, 384-well format
786-0 renal = tested on: 786-0 renal
A498 renal = tested on: A498 renal
A549 NSCLC = tested on: A549 NSCLC
ACHN renal = tested on: ACHN renal
BT-549 breast = tested on: BT-549 breast
CAKI-1 renal = tested on: CAKI-1 renal
CCRF-CEM leukemia = tested on: CCRF-CEM leukemia
COLO 205 colon = tested on: COLO 205 colon
DU-145 prostate = tested on: DU-145 prostate
EKVX NSCLC = tested on: EKVX NSCLC
HCC-2998 colon = tested on: HCC-2998 colon
HCT-116 colon = tested on: HCT-116 colon
HCT-15 colon = tested on: HCT-15 colon
HL-60(TB) leukemia = tested on: HL-60(TB) leukemia
HOP-62 NSCLC = tested on: HOP-62 NSCLC
HOP-92 NSCLC = tested on: HOP-92 NSCLC
HS 578T breast = tested on: HS 578T breast
HT29 colon = tested on: HT29 colon
IGROV1 ovarian = tested on: IGROV1 ovarian
K-562 leukemia = tested on: K-562 leukemia
KM12 colon = tested on: KM12 colon
LOX IMVI melanoma = tested on: LOX IMVI melanoma
M14 melanoma = tested on: M14 melanoma
MALME-3M melanoma = tested on: MALME-3M melanoma
MCF7 breast = tested on: MCF7 breast
MDA-MB-231 breast = tested on: MDA-MB-231 breast
MDA-MB-435 melanoma = tested on: MDA-MB-435 melanoma
MDA-MB-468 breast = tested on: MDA-MB-468 breast
MOLT-4 leukemia = tested on: MOLT-4 leukemia
NCI-H226 lung = tested on: NCI-H226 lung
NCI-H23 lung = tested on: NCI-H23 lung
NCI-H322M lung = tested on: NCI-H322M lung
NCI-H460 NSCLC = tested on: NCI-H460 NSCLC
NCI-H522 lung = tested on: NCI-H522 lung
NCI/ADR-RES ovarian = tested on: NCI/ADR-RES ovarian
OVCAR-3 ovarian = tested on: OVCAR-3 ovarian
OVCAR-4 ovarian = tested on: OVCAR-4 ovarian
OVCAR-5 ovarian = tested on: OVCAR-5 ovarian
OVCAR-8 ovarian = tested on: OVCAR-8 ovarian
PC-3 prostate = tested on: PC-3 prostate
RPMI-8226 leukemia = tested on: RPMI-8226 leukemia
RXF 393 renal = tested on: RXF 393 renal
SF-268 CNS = tested on: SF-268 CNS
SF-295 CNS = tested on: SF-295 CNS
SF-539 CNS = tested on: SF-539 CNS
SK-MEL-28 melanoma = tested on: SK-MEL-28 melanoma
SK-MEL-5 melanoma = tested on: SK-MEL-5 melanoma
SK-OV-3 ovarian = tested on: SK-OV-3 ovarian
SN12C renal = tested on: SN12C renal
SNB-19 CNS = tested on: SNB-19 CNS
SNB-75 CNS = tested on: SNB-75 CNS
SR leukemia = tested on: SR leukemia
SW-620 colon = tested on: SW-620 colon
T-47D breast = tested on: T-47D breast
TK-10 renal = tested on: TK-10 renal
U251 glioblastoma = tested on: U251 glioblastoma
UACC-257 melanoma = tested on: UACC-257 melanoma
UO-31 renal = tested on: UO-31 renal

SMILES: CNC(=O)c1cc(Oc2ccc3nc(N[C@@H]4CCCC[C@H]4O)sc3c2)ccn1
- GI50 ([…]-0 renal): > 100 µM
- TGI (786-0 renal): > 100 µM
- GI50 (A498 renal): > 100 µM
- TGI (A498 renal): > 100 µM
- GI50 (A549 NSCLC): > 100 µM
- TGI (A549 NSCLC): > 100 µM
- GI50 (ACHN renal): > 100 µM
- TGI (ACHN renal): > 100 µM
- GI50 (BT-549 breast): 60.4 µM
- TGI (BT-549 breast): > 100 µM
- GI50 (CAKI-1 renal): > 100 µM
- TGI (CAKI-1 renal): > 100 µM
- GI50 (CCRF-CEM leukemia): 39.3 µM
- TGI (CCRF-CEM leukemia): > 100 µM
- GI50 (COLO 205 colon): > 100 µM
- TGI (COLO 205 colon): > 100 µM
- GI50 (DU-145 prostate): > 100 µM
- TGI (DU-145 prostate): > 100 µM
- GI50 (EKVX NSCLC): 58.9 µM
- TGI (EKVX NSCLC): > 100 µM
- GI50 (HCC-2998 colon): > 100 µM
- TGI (HCC-2998 colon): > 100 µM
- GI50 (HCT-116 colon): 53 µM
- TGI (HCT-116 colon): > 100 µM
- GI50 (HCT-15 colon): 34.4 µM
- TGI (HCT-15 colon): > 100 µM
- GI50 (HL-60(TB) leukemia): 22.2 µM
- TGI (HL-60(TB) leukemia): > 100 µM
- GI50 (HOP-62 NSCLC): 51.1 µM
- TGI (HOP-62 NSCLC): > 100 µM
- GI50 (HOP-92 NSCLC): > 100 µM
- TGI (HOP-92 NSCLC): > 100 µM
- GI50 (HS 578T breast): 46.1 µM
- TGI (HS 578T breast): > 100 µM
- GI50 (HT29 colon): > 100 µM
- TGI (HT29 colon): > 100 µM
- GI50 (IGROV1 ovarian): > 100 µM
- TGI (IGROV1 ovarian): > 100 µM
- GI50 (K-562 leukemia): 35.1 µM
- TGI (K-562 leukemia): > 100 µM
- GI50 (KM12 colon): > 100 µM
- TGI (KM12 colon): > 100 µM
- GI50 (LOX IMVI melanoma): 72.2 µM
- TGI (LOX IMVI melanoma): > 100 µM
- GI50 (M14 melanoma): > 100 µM
- TGI (M14 melanoma): > 100 µM
- GI50 (MALME-3M melanoma): 56.2 µM
- TGI (MALME-3M melanoma): > 100 µM
- GI50 (MCF7 breast): 34.7 µM
- TGI (MCF7 breast): > 100 µM
- GI50 (MDA-MB-231 breast): 60 µM
- TGI (MDA-MB-231 breast): > 100 µM
- GI50 (MDA-MB-435 melanoma): > 100 µM
- TGI (MDA-MB-435 melanoma): > 100 µM
- GI50 (MDA-MB-468 breast): 12.3 µM
- TGI (MDA-MB-468 breast): 45.3 µM
- GI50 (MOLT-4 leukemia): 31.7 µM
- TGI (MOLT-4 leukemia): > 100 µM
- GI50 (NCI-H226 lung): 35.2 µM
- TGI (NCI-H226 lung): > 100 µM
- GI50 (NCI-H23 lung): 45.3 µM
- TGI (NCI-H23 lung): > 100 µM
- GI50 (NCI-H322M lung): > 100 µM
- TGI (NCI-H322M lung): > 100 µM
- GI50 (NCI-H460 NSCLC): 48 µM
- TGI (NCI-H460 NSCLC): > 100 µM
- GI50 (NCI-H522 lung): 59 µM
- TGI (NCI-H522 lung): > 100 µM
- GI50 (NCI/ADR-RES ovarian): 24.2 µM
- TGI (NCI/ADR-RES ovarian): > 100 µM
- GI50 (OVCAR-3 ovarian): > 100 µM
- TGI (OVCAR-3 ovarian): > 100 µM
- GI50 (OVCAR-4 ovarian): 40.3 µM
- TGI (OVCAR-4 ovarian): > 100 µM
- GI50 (OVCAR-5 ovarian): > 100 µM
- TGI (OVCAR-5 ovarian): > 100 µM
- GI50 (OVCAR-8 ovarian): 59 µM
- TGI (OVCAR-8 ovarian): > 100 µM
- GI50 (PC-3 prostate): 71.3 µM
- TGI (PC-3 prostate): > 100 µM
- GI50 (RPMI-8226 leukemia): 18.9 µM
- TGI (RPMI-8226 leukemia): 69.1 µM
- GI50 (RXF 393 renal): 25.8 µM
- TGI (RXF 393 renal): 83.2 µM
- GI50 (SF-268 CNS): > 100 µM
- TGI (SF-268 CNS): > 100 µM
- GI50 (SF-295 CNS): 41.7 µM
- TGI (SF-295 CNS): > 100 µM
- GI50 (SF-539 CNS): 89.1 µM
- TGI (SF-539 CNS): > 100 µM
- GI50 (SK-MEL-28 melanoma): > 100 µM
- TGI (SK-MEL-28 melanoma): > 100 µM
- GI50 (SK-MEL-5 melanoma): 19.8 µM
- TGI (SK-MEL-5 melanoma): 42.2 µM
- GI50 (SK-OV-3 ovarian): > 100 µM
- TGI (SK-OV-3 ovarian): > 100 µM
- GI50 (SN12C renal): > 100 µM
- TGI (SN12C renal): > 100 µM
- GI50 (SNB-19 CNS): > 100 µM
- TGI (SNB-19 CNS): > 100 µM
- GI50 (SNB-75 CNS): 68.8 µM
- TGI (SNB-75 CNS): > 100 µM
- GI50 (SR leukemia): 10.5 µM
- TGI (SR leukemia): 23.3 µM
- GI50 (SW-620 colon): > 100 µM
- TGI (SW-620 colon): > 100 µM
- GI50 (T-47D breast): 33.4 µM
- TGI (T-47D breast): > 100 µM
- GI50 (TK-10 renal): 84.8 µM
- TGI (TK-10 renal): > 100 µM
- GI50 (U251 glioblastoma): 73.2 µM
- TGI (U251 glioblastoma): > 100 µM
- GI50 (UACC-257 melanoma): 48.4 µM
- TGI (UACC-257 melanoma): > 100 µM
- GI50 (UO-31 renal): > 100 µM
- TGI (UO-31 renal): > 100 µM
